This is an account of results in patent US6852760B1, “Compositions and methods for treatment for glucose metabolism disorders” (Akesis Pharmaceuticals, Inc., priority 1998, dated 2005).

The conditions of series [1]: after 14 weeks, cited from earlier work.
The conditions of series [2]: person with Type 2 diabetes; metformin 500 mg b.i.d.; combination after 2 months.
For series [3] the following is noted: cited from earlier work.
The conditions of series [4]: hypertensive obese non-diabetic women; cited from earlier work.
For series [5] the following is noted: person, Type 2 diabetes; metformin 1000 mg b.i.d.; combination after 3 months.
The conditions of series [6]: dietary; STZ-induced diabetic rats; cited from earlier work.
For series [7] the following is noted: NIDDM patients; cited from earlier work.
The conditions of series [8]: cited from earlier work. The source holds these as a separate data set.
For series [9] the following is noted: rat, in vivo, po; cited from earlier work.
The subject of series [10] is Na/K ATPase. As to conditions: catalytic cycle of Na/K ATPase; cited from earlier work.
The conditions of series [11]: treatment periods of up to one year; cited from earlier work.

Like-named read-outs stand apart in the source and are kept apart here.

`CN(C)C(=N)NC(=N)N` [Metformin alone, N,N-dimethylimidodicarbonimidicdiamide]: in series [1] (500 mg daily), the “reduction of HbA1c” value was 0.9%. For the same compound, in series [1] (2000 mg daily), the “reduction of HbA1c” value is reported as 2.0%. Also, in series [2], the Cholesterol was 229, the “Estimated Blood Sugar” value is on record as 200 mg/dL, the “Fasting Blood Sugar” value came out at 185 mg/dL and the HDL stood at 52. In addition, in [2], the “HbA1c level” value was found to be 9.7, the LDL worked out at 133 and the Triglycerides came to 220. Moreover, the “HbA1c level after metformin therapy” value in series [3] (after 29 weeks, alone or in combination with sulfonylurea, improved from 8.6%) is listed as 7.1%. The “effect on serum lipids” value in series [3] (moderately obese Type 2 diabetics) is “lowering mean fasting serum triglycerides, total cholesterol, and LDL cholesterol levels”. The “blood pressure, plasma insulin, fibrinogen” value in series [4] was “decreased blood pressure, fasting and glucose-stimulated plasma insulin fibrinogen”. Besides, in [5], the HbA1c level worked out at 8.3.
On to `CC(=O)N[C@@H](CS)C(=O)O` [NAC, N-acetylcysteine], for which, in [6], the “development of peripheral neuropathy” value is reported as “appeared to inhibit the development of peripheral neuropathy”. For the same compound, the “reduction of apolipoprotein A1” value in series [7] is “over 20%”.
On to `Cc1c(C)c2c(c(C)c1O)CC[C@@](C)(CCC[C@H](C)CCC[C@H](C)CCCC(C)C)O2` [vitamin E, free 2R,4′R,8′R-alpha-tocopherol], for which, in series [8] (400 or 800 I.U. daily, patients with coronary artery disease), the non-fatal myocardial infarction result is “dramatic and significant reduction of non-fatal myocardial infarction”. Also, in series [8] (400 or 800 I.U.), the “side effects versus placebo” value is listed as “no difference between the alpha-tocopherol treatment (400 or 800 I.U.) or placebo groups for side effects”.
Turning to chromium picolinate, the “rate of absorption relative to chromium trichloride” value in series [9] was “about four times greater than chromium trichloride”.
In the case of `[O]=[V]([O-])([O-])[O-]` [vanadate], the “concentration inhibiting formation of EP” value in series [10] was “less than 1 micromolar”.
For `O=S(=O)([O-])[O-].[O]=[V+2]` [vanadyl sulfate], the apparent toxicity entry in series [11] is reported as “does not appear not to be associated with any apparent toxicity”.
